{
  "source": "patent US20110033393A1",
  "about": "“Hydrazone Compounds and Their Use” (priority 2009, published 2011)",
  "key": {"Beta-TC-6 cells": {"system": "Beta-TC-6 cells", "assay": "Insulin release enhancement in insulinoma cell line Beta-TC-6 (Assay 1)", "type": "cell-based, mouse", "protocol": "Assay I: Insulin release enhancement by TRPM5 inhibitors was tested by the following procedure. Beta-TC-6 cells are an insulin-secreting cell line derived from transgenic mice expressing the large T-antigen of simian virus 40 (SV40) in pancreatic beta-cells as described by Poitout et al., Diabetes, 44:306-313 (1995). The cell line was obtained from ATCC cell bank CAT# CRL-11506 and grown in Dulbecco's Modified Eagle's Medium (DMEM) with 15% fetal bovine serum (FBS), 4 mM glutamine, 4.5 g/L glucose, 110 mg/L sodium pyruvate and 1× penn/strep antibiotic mix in a 37° C. incubator with 5% CO2. Cultures were routinely split 1:2 twice a week with the aid of trypsin.\nThe day before the assay 0.15×10^6 Beta-TC-6 cells were plated into each well of 96 well plates (Greiner bio-one V-bottom, Cat#: 651 180). The cells were spun at 1200 rpm for 5 min and cultured overnight. […] Insulin release in the supernatant was assessed using a commercially available ELISA kit (Mercodia Cat#: 10-1149-10) according to the manufacturer's protocol. The data were expressed as pg of insulin per number of cells. […]"}, "GLUTag cells": {"system": "GLUTag cells", "assay": "GLP-1 release using GLUTag cells (Assay 1)", "type": "cell-based, mouse", "protocol": "Mouse GLUTag cells are a native intestinal cell line which expresses TRPM5. The cell line was obtained from Dr. Daniel J. Drucker in the Division of Endocrinology, Department of Medicine, at University of Toronto, and grown in Invitrogen Dulbecco's Modified Eagle's Medium (DMEM) high glucose (Cat#: 11995) with 10% fetal bovine serum (FBS) and 1× penn/strep antibiotic mix in a 37° C. incubator with 5% CO2.\nAssay 1: All reagents and media were pre-warmed to room temperature prior to the beginning of the experiment.\nSeeding of Cell Plate: BD 96-well Matrigel-coated plates (Fisher, Cat #: 08-774-166) were rehydrated using 100 μL of plating media (Invitrogen Cat #: 31985) OPTI-Modified Eagle's Medium (MEM) with 10% FBS and 1× penn/strep antibiotic mix and incubated for 30 minutes in a 37° C. incubator and 5% CO2. The rehydration media was aspirated and GLUTag cells were plated at 100 ul per well at a density of 7.5×10^5 cells/ml. The plates were then incubated overnight in a 37° C. incubator and 5% CO2.\nThe following protocol utilized the Millipore GLP-1 ELISA Kit (Cat. #: EGLP-35K) to analyze GLP-1 secretion from GLUTag cells in the presence of TRPM5 inhibitors/enhancers and glucose.\nELISA Assay Day 1: Stock solutions and dilution plates of TRPM5 inhibitors or enhancers were prepared. […]"}},
  "data": [
    {"smiles": "Cc1cc(/C=N/NC(=O)C2CC2c2ccccc2)cc2cccnc12", "note": "(racemic) [Example 10, trans-N′-((8-Methylquinolin-6-yl)methylene)-2-phenylcyclopropanecarbohydrazide]", "values": [
      {"measurement": "insulin secretion", "setting": "Beta-TC-6 cells; Beta-TC-6, in the presence of 0.3 mM glucose", "value": "does not occur"},
      {"measurement": "insulin secretion", "setting": "Beta-TC-6 cells; Beta-TC-6, in the presence of 1 mM glucose", "value": "dose-dependent increase of insulin secretion"},
      {"measurement": "GLP-1 secretion", "setting": "GLUTag cells; in the presence of 0.1 mM glucose", "value": "is not observed"},
      {"measurement": "GLP-1 secretion", "setting": "GLUTag cells; in the presence of 0.3 mM glucose", "value": "dose-dependent increase of GLP-1 secretion"}
    ]}
  ]
}
